# Data as given in patent publication US4784944A, “Prothrombin time determining reagent and methods of using and preparing the same” (Behringwerke Aktiengesellschaft, priority 1984, dated 1988).
# Starred links: 1 amine or outer side, 2 acyl side, 3 side chain; linkers in the order of their positions; H or OH if unused. Non-standard residues stand in square brackets, D forms with d. Residues, ends and D or L forms follow the SMILES beside them. *: point of attachment. Benzoyl(5-NH,2-NO2) = O=C(c1cc(N[*:1])ccc1[N+](=O)[O-])[*:2]; pNA = O=[N+]([O-])c1ccc(N*)cc1; Tos = Cc1ccc(S(=O)(=O)*)cc1
# Tests used:
# Format in all cases: biochemical
# Thromboplastin B = assay: Hydrolysis of chromogenic substrates by thromboplastin B; settings: Thromboplastin B 5%; substrate 50 μmol/l; after 92 hours at room temperature; 405 nm
# Procedure: (§1) Difference in extinction after 92 hours at room temperature of a reagent prepared according to Example 1. The substrate concentration was 50 μmol/l, and the thromboplastins were dissolved in accordance with the statements of the manufacturer and added at a concentration of 5%.
# (§2) 4 to 20 ml of human thromboplastin were added to 70 ml of an aqueous solution containing 5.844 g of NaCl, 1.47 g of CaCl2, 11.92 g of HEPES, 250 μg of polybrene® and 67.1 mg of H-D-Phe-Pro-Arg-ANBA-isopropylamide HCl in one liter, pH 7.6, and the mixture was freeze-dried.
# Thromboplastin E = assay: Hydrolysis of chromogenic substrates by thromboplastin E; settings: Thromboplastin E 5%; substrate 50 μmol/l; after 92 hours at room temperature; 405 nm
# Procedure: as §1, §2
# Thromboplastin G = assay: Hydrolysis of chromogenic substrates by thromboplastin G; settings: Thromboplastin G 5%; substrate 50 μmol/l; after 92 hours at room temperature; 405 nm
# Procedure: as §1, §2
# Thromboplastin D = assay: Hydrolysis of chromogenic substrates by thromboplastin D; settings: Thromboplastin D 5%; substrate 50 μmol/l; after 92 hours at room temperature; 405 nm
# Procedure: as §1, §2
# Thromboplastin F = assay: Hydrolysis of chromogenic substrates by thromboplastin F; settings: Thromboplastin F 5%; substrate 50 μmol/l; after 92 hours at room temperature; 405 nm
# Procedure: as §1, §2
# Thromboplastin A = assay: Hydrolysis of chromogenic substrates by thromboplastin A; settings: Thromboplastin A 5%; substrate 50 μmol/l; after 92 hours at room temperature; 405 nm
# Procedure: as §1, §2
# Thromboplastin C = assay: Hydrolysis of chromogenic substrates by thromboplastin C; settings: Thromboplastin C 5%; substrate 50 μmol/l; after 92 hours at room temperature; 405 nm
# Procedure: as §1, §2
# [1] = system: thromboplastins of the state of the art; assay: Hydrolysis of chromogenic substrates by thromboplastins; settings: for Stability of a reagent containing the substrate (in words): reagent with thromboplastin having proteolytic activity
# Procedure: The substrate concentration was 50 μmol/l, and the thromboplastins were dissolved in accordance with the statements of the manufacturer and added at a concentration of 5%.
Compound,Difference in extinction (hydrolysis of chromogenic substrate) (Thromboplastin B),Difference in extinction (hydrolysis of chromogenic substrate) (Thromboplastin E),Difference in extinction (hydrolysis of chromogenic substrate) (Thromboplastin G),Difference in extinction (hydrolysis of chromogenic substrate) (Thromboplastin D),Difference in extinction (hydrolysis of chromogenic substrate) (Thromboplastin F),Difference in extinction (hydrolysis of chromogenic substrate) (Thromboplastin A),Difference in extinction (hydrolysis of chromogenic substrate) (Thromboplastin C),Stability of a reagent containing the substrate (in words) [1],"Extent of hydrolysis by the thromboplastins (in words) ([1]; extinction at 405 nm, Table 1)"
"CC(C)C[C@H](N)C(=O)Nc1ccc([N+](=O)[O-])cc1 [Leu-pNA, reference compound]","0,681","0,871","1,124","0,593","0,536","0,974","0,721",–,–
CC(C)(C)CNC(=O)c1cc(NC(=O)[C@H](CCCNC(=N)N)NC(=O)[C@@H]2CCCN2C(=O)[C@H](N)Cc2ccccc2)ccc1[N+](=O)[O-] [D-Phe-Pro-Arg-ANBA-neopentylamide],"0,009","0,014","0,002","0,007","0,003","0,003","0,011",–,–
"CC(C)NC(=O)c1cc(NC(=O)[C@H](CCCNC(=N)N)NC(=O)[C@@H]2CCCN2C(=O)[C@H](N)Cc2ccccc2)ccc1[N+](=O)[O-] [D-Phe-Pro-Arg-ANBA-isopropylamide, H-D-Phe-Pro-Arg-ANBA-isopropylamide]","0,016","0,011",0,"0,013",0,"0,006","0,010",stable for a considerably longer time,–
Cc1ccc(S(=O)(=O)NCC(=O)N2CCC[C@H]2C(=O)N[C@@H](CCCNC(=N)N)C(=O)Nc2ccc([N+](=O)[O-])c(C(=O)NC(C)C)c2)cc1 [Tos-Gly-Pro-Arg-ANBA-isopropylamide],"0,039","0,041","0,018","0,023","0,029","0,035","0,030",–,–
CCCCNC(=O)c1cc(NC(=O)[C@H](CCCNC(=N)N)NC(=O)[C@@H]2CCCN2C(=O)[C@H](N)Cc2ccccc2)ccc1[N+](=O)[O-] [D-Phe-Pro-Arg-ANBA-n-Butylamide],"0,023","0,030","0,012","0,013","0,023","0,021","0,019",–,–
"NCCCC[C@H](NC(=O)c1ccccc1)C(=O)Nc1ccc([N+](=O)[O-])cc1 [N-α-Benzoyl-L-Lysine-pNA, reference compound]","0,525","0,372","0,503","0,402","0,198","0,319","0,433",–,–
"CCOC(=O)CNC(=O)c1cc(NC(=O)[C@H](CCCNC(=N)N)NC(=O)[C@@H]2CCCN2C(=O)CNS(=O)(=O)c2ccc(C)cc2)ccc1[N+](=O)[O-] [Tos-Gly-Pro-Arg-ANBA-Glycine ethyl ester] (Tos-GPR[Benzoyl(5-NH,2-NO2)]G-OEt)","0,034","0,037","0,029","0,026","0,023","0,029","0,028",–,–
D-Phe-Pro-Arg-ANBA-Valine methyl ester,"0,031",0,"0,002","0,020",0,"0,003","0,008",–,–
"C[C@H](NC(=O)CCC(=O)O)C(=O)N[C@@H](C)C(=O)N[C@@H](C)C(=O)Nc1ccc([N+](=O)[O-])cc1 [Suc-(Ala)3-pNA, reference compound]","0,324","0,178","0,202","0,411","0,310","0,211","0,248",–,–
"CCOC(=O)CNC(=O)c1cc(NC(=O)[C@H](CCCNC(=N)N)NC(=O)[C@@H]2CCCN2C(=O)[C@H](N)Cc2ccccc2)ccc1[N+](=O)[O-] [D-Phe-Pro-Arg-ANBA-Glycine ethyl ester] (H-[dF]PR[Benzoyl(5-NH,2-NO2)]G-OEt)","0,009","0,008","0,003","0,019","0,011","0,007","0,015",–,–
"Cc1ccc(S(=O)(=O)NCC(=O)N2CCC[C@H]2C(=O)N[C@@H](CCCNC(=N)N)C(=O)Nc2ccc([N+](=O)[O-])cc2)cc1 [Tos-Gly-Pro-Arg-pNA, reference compound] (Tos-Gly-Pro-Arg-pNA)","0,143","0,123","0,149","0,137","0,116","0,190","0,115",stable for only a very short time,rapid consumption of the substrate
